# According to patent US20130123287A1, “CONTROL AGENT FOR SOFT ROT AND CONTROL METHOD FOR THE SAME” (ISHIHARA SANGYO KAISHA, LTD., priority 2010, published 2013):
# Tests used:
# [1] = test system: bacteria causing the soft rot (Erwinia carotovora); assay: Inhibition test of growth of bacteria causing soft rot, Reference Test Example 5; assay type: cell-based; settings: for formed colonies (growth state), grade: PSA medium, 27 degrees Celsius, 2 days
# Method: An inhibition test of the growth of bacteria causing the soft rot was done, when a control agent was directly applied to the bacteria causing the soft rot. A given volume of each pesticide of mepanipyrim (Flupika FL [trade name] manufactured by Nippon Soda Co., Ltd.) and streptomycin (Mycin Wettable powder [trade name] manufactured by Hokko Chemical Industry Co., Ltd.) was added together with a suspension of the bacteria causing the soft rot (Erwinia carotovora) to a preliminarily dissolved PSA culture medium (55 degrees Celsius) for subsequent thorough agitation, which was then spread on a plate for culturing at 27 degrees Celsius for 2 days, to examine the growth state. Subsequently, the formed colonies were examined according to the following three grades. • +: at the same level as the level of non-treated lot.
# Plus or minus: apparently less than the colonies of the non-treated lot. • −: almost no colonies observed.
# [2] = test system: soft rot of Chinese cabbage; assay: Test for controlling soft rot of Chinese cabbage, Example 2 / Comparative Example 2 (field, cultivar Harebutai 65); assay type: in vivo; settings: 1/1000 dilution, 300 L/10a sprayed twice on stems and leaves, 64 days after start
# Description: Frequency of the disease=[sigma(number of plants with the onset of the disease at each severity level*index of the onset of the disease)/(plants examined*4)]*100
# Disease control value=[1-(frequency of the disease in the treated lot/frequency of the disease in the non-treated lot)]*100
# • 0: No onset • 1: Onset in some of outer leaves (shippable) • 2: Onset in outer leaves and some of head leaves (by removing damaged parts, the resulting cabbage can be shipped as small cabbage but is ranked as grade B). • 3: Most of head leaves are inflicted with the onset of the disease or with severer damages (not shippable) • 4: Whole cabbage plant is inflicted with the onset of the disease and is dead.
# 200 g/l Azoxystrobin (Amistar 20 FLOWABLE [trade name], manufactured by Syngenta Japan K.K.) was adjusted to 500 g ai/10a (0.5 g/m^2, 2500 ml Product/10a) as the amount of the active ingredient and to 150 L/10a as the volume of diluent water.
# 30% w/w triflumizol (TRIFUMIN WP [trade name], manufactured by Nippon Soda Co., Ltd.) was adjusted to 500 g ai/10a (0.5 g/m^2, 1667 g Product/10a) as the amount of the active ingredient and to 150 L/10a as the volume of diluent water.
# 100 g/1 cyazofamid (RANMAN PLOWABLE [trade name], manufactured by Ishihara Sangyo Kaisha, Ltd.) was adjusted to 500 g ai/10a (0.5 g/m^2, 5000 ml Product/10a) as the amount of the active ingredient and to 150 L/10a as the volume of diluent water.
# 50% w/w penthiopyrad (GAIA WG [trade name], manufactured by Mitsui Chemicals Agro, Inc.) was adjusted to 500 g ai/10a (0.5 g/m^2, 1000 g Product/10a) as the amount of the active ingredient and to 150 L/10a as the volume of diluent water.
# 50 g/l flusulfamide (SCABLOCK SC [trade name], manufactured by Mitsui Chemicals Agro, Inc.) was adjusted to 500 g ai/10a (0.5 g/m^2, 10000 ml Product/10a) as the amount of the active ingredient and to 150 L/10a as the volume of diluent water.
# 400 g/1 chlorothalonil (Daconil 1000 [the trade name], manufactured by Sumitomo Chemical, Limited) was adjusted to 1000 g ai/10a (1.0 g/m^2, 2500 ml Product/10a) as the amount of the active ingredient and to 150 L/10a as the volume of diluent water.
# After spreading an agricultural mulch-sheet and opening planting holes (diameter of about 5 cm) for permanent planting through the mulch-sheet, the spray solutions prepared as described above were sprayed onto the planting holes such that the amount of treated active ingredient of chlorothalonil was 1.0 g/m^2 (150 L per 10a) and the amount of each of the remaining spray solutions was 0.5 g/m^2 (150 L per 10a), followed by air-drying; subsequently, seedlings of Chinese cabbage (cultivar Harebutai 65) grown for 4 weeks in cell mold trays (128 holes/nursery box) were planted such that 19 seedlings were planted in each test lot having an area of 2.4 m^2 with two replications.
# Preparation was performed by diluting streptomycin (Mycin 20 wettable powder solution [under the trade name] manufactured by Hokko Chemical Industry Co., Ltd.) with water to 1/1000.
# In a field spread with the agricultural mulch-sheet, Chinese cabbage seedlings (cultivar: Harebutai 65) grown by the same method as in Example 2 were planted by the same method as in Example 2, for spraying the spray solution of streptomycin prepared above in (1) (at each spray volume of 300 L/10a) twice (27 days and 48 days after the planting of the seedlings) on the stems and leaves with a sprayer.
# 64 days after the start of the tests, all the plants in each lot were examined about the severity level of the disease to assess the frequency of the disease and the disease control value. In the same manner as described above, the frequency of the disease and the disease control value were determined. Additionally, soft rot is a disease with damages hardly controlled, so even a chemical at the level C determined by the tests of the effects can practically be used.
compound,measurement,setting,value
[H]/N=C(/N)N[C@H]1[C@H](O)[C@@H](O)[C@H](O[C@@H]2O[C@@H](C)[C@](O)(C=O)[C@H]2O[C@@H]2O[C@@H](CO)[C@H](O)[C@@H](O)[C@@H]2NC)[C@@H](N/C(N)=N\[H])[C@@H]1O [Streptomycin],"formed colonies (growth state), grade",[1]; 1 ppm active ingredient,"+, ±"
same,"formed colonies (growth state), grade",[1]; 10 ppm active ingredient,"−, −"
same,direct antibacterial activity against Erwinia carotovora (in words),[1]; active ingredient concentration of 10 ppm,exerted a direct antibacterial activity
same,Determination of effect,[2],B (B: Effective (41 to 60 disease control value))
